Laboratory results published in US10519138B2, “Modulators of SOCE, compositions, and uses thereof” (Università degli Studi del Piemonte Orientale “Amedeo …, priority 2016, dated 2019).
Entries after “also recorded” stand apart in the source; their conditions may differ.

Tests used:
[1] = tested on: Store Operated Calcium Entry (SOCE) in Jurkat cells; assay: Fura-2 single-cell Ca2+ measurement of tBHQ-induced SOCE in Jurkat cells; assay type: cell-based, human; conditions: Homo sapiens, SOCE modulation based on tBHQ-induced calcium influx
Method: Immortalized line of human T lymphocyte Jurkat cells were achieved from ATCC (ATCC® TIB-152™, Rockville, Md., USA) and were cultured in Roswell Park Memorial Institute Medium (RPMI 1640; Sigma-Aldrich, Italy), supplemented with 10% heat-inactivated FBS (Gibco, Italy), 1-glutamine 50 mg/mL (Sigma-Aldrich, Italy), penicillin 10 U/mL and streptomycin […] (Sigma-Aldrich, Italy) at 37° C., under a 5% CO2 humidified atmosphere. For experiments, the cells were plated onto glass coverslips at concentrations of 6×10^4 per mL (24 mm diameter coverslips in 6 well plates).
Compounds were also tested on Jurkat cells in single-cell analysis using Fura-2 AM on cover-slips. Jurkat cells were loaded with 5 μM Fura-2 AM in presence of 0.02% of Pluronic-127 (both from Life Technologies, Italy) and 1 μM sulfinpyrazone in Krebs-Ringer buffer (KRB, 135 mM NaCl, 5 mM KCl, 0.4 mM KH2PO4, 1 mM MgSO4, 5.5 mM glucose, 20 mM HEPES, pH 7.4) containing 2 mM CaCl2 (30 min, room temperature). Afterwards, cells were washed and incubated with KRB for other 30 min to allow de-esterification of Fura-2AM. To measure store operated calcium entry, changes in cytosolic Ca^2+ were monitored upon depletion of the intracellular Ca^2+ stores. Experiments were carried out prior to and during exposure of the cells to the Ca^2+-free solution. In the absence of Ca^2+, the intracellular Ca^2+ stores were depleted by inhibition of the vesicular Ca^2+ pump by 2,5-t-butylhydroquinone (tBHQ, 50 μM; Sigma-Aldrich, Italy). Re-addition of 2 mM Ca^2+ allowed assessing the SOCE. During the experiments the cover-slips were mounted into acquisition chamber and placed on the stage of a Leica DMI6000 epi-fluorescent microscope equipped with S Fluor ×40/1.3 objective. Fura-2 was excited by alternate 340 and 380 nm using a Polychrome IV mono-chromator (Till Photon-ics, Germany) and the probe emission light was filtered through 520/20 band-pass filter and collected by a cooled CCD camera (Hamamatsu, Japan). The fluorescence signals were acquired and processed using MetaFluor software (Molecular Device, Sun-Nyvale, C A, USA). To quantify the differences in the amplitudes of Ca^2+ transients the ratio values were normalized using the formula ΔF/F0 (referred to as normalized Fura-2 ratio, “Norm. Fura ratio”). The percentage of SOCE modulation for each of 15 compounds was determined based on value of tBHQ-induced calcium influx into Jurkat cells. Data were analysed using Microsoft Excel and GraphPad Prism.

[2] = tested on: STIM1 mutated proteins; assay: SOCE in HEK cells overexpressing wild-type or mutated STIM1 (Fura2-AM single cell analysis); assay type: cell-based, human; conditions: 10 μM
Method: (§1) SOCE induced by tBHQ in wilde-type HEK cells or HEK cells overexpressing the indicated STIM1 (A) or Orai1 (B) proteins. Average traces of approx. 600 cells from 20 coverslips performed on 4 separate days for each condition.
(§2) 3-(1-(4-(4-(ethoxycarbonyl)-5-(trifluoromethyl)-1H-pyrazol-1-yl)phenyl)-1H-1,2,3-triazol-4-yl)benzoic acid 10 μM impairs SOCE both in Wild-type and STIM1 (A) or Orai1 (B) mutated cells.
(§3) HEK STIM1 c.326A>G p.H109R (A) and HEK Orai1 c.734C>T p.P245L (B) cells were assayed for a calcium response to different concentrations of 3-(1-(4-(4-(ethoxycarbonyl)-5-(trifluoromethyl)-1H-pyrazol-1-yl)phenyl)-1H-1,2,3-triazol-4-yl)benzoic acid (1-3-10-30-100 μM) using Fura2-AM single cell analysis. Concentration-response curves represent the AUC % of 3-(1-(4-(4-(ethoxycarbonyl)-5-(trifluoromethyl)-1H-pyrazol-1-yl)phenyl)-1H-1,2,3-triazol-4-yl)benzoic acid.
(§4) Human embryonic kidney HEK cells were obtained from ATCC (ATCC® CRL-1573™, Rockville, Md., USA) and were cultured in Dulbecco's Modified Eagle's Medium (DMEM; Sigma-Aldrich, Italy), supplemented with 10% heat-inactivated FBS (Gibco, Italy), 1-glutamine 50 mg/mL (Sigma-Aldrich, Italy), penicillin 10 U/mL and streptomycin […] (Sigma-Aldrich, Italy) at 37° C., under a 5% CO2 humidified atmosphere. […]

[3] = tested on: Orai1 mutated proteins; assay: SOCE in HEK cells overexpressing wild-type or mutated Orai1 (Fura2-AM single cell analysis); assay type: cell-based, human; conditions: 10 μM
Method: as §1, §2, §3, §4

[4] = tested on: Store Operated Calcium Entry (SOCE) in BV-2 cells; assay: Fluo-4 fluorimetric assay of tBHQ-induced store operated calcium entry in BV-2 cells; assay type: cell-based, mouse
Method: (A) BV-2 cells were plated in poly-d-lysine coated 24-well plate and incubated overnight. After 24 hours, cells were loaded with 2 μM Fluo-4 and placed in an extracellular solution containing 0 mM Ca^2+. Stores were depleted with 50 μM tBHQ and calcium influx was stimulated by the addition of 2 mM Ca^2+ alone (Ctrl), or in conbination with: compound with no activity (NM-3A), and compounds that positively (4-(1-(4-(3,5-bis(trifluoromethyl)-1H-pyrazol-1-yl)phenyl)-1H-1,2,3-triazol-4-yl)benzoic acid) and negatively (3-(1-(4-(4-(ethoxycarbonyl)-5-(trifluoromethyl)-1H-pyrazol-1-yl)phenyl)-1H-1,2,3-triazol-4-yl)benzoic acid) regulate SOCE. Calcium responses are expressed as changes in fluorescence intensity before and after the addition of selected modulators. (B) BV-2 cells were assayed for a calcium response to different concentrations of 3-(1-(4-(4-(ethoxycarbonyl)-5-(trifluoromethyl)-1H-pyrazol-1-yl)phenyl)-1H-1,2,3-triazol-4-yl)benzoic acid and 4-(1-(4-(3,5-bis(trifluoromethyl)-1H-pyrazol-1-yl)phenyl)-1H-1,2,3-triazol-4-yl)benzoic acid (0.1-0.3-1-3-10-30-100 μM) using Fluo-4 fluorimetric assay. Concentration-response curves represent the AUC % of both compounds as compared to positive control.
Immortalized primary mouse microglial BV-2 cells were obtained from ATCC (ATCC® CRL-2540™, Rockville, Md., USA) and were cultured in Dulbecco's Modified Eagle's Medium (DMEM; Sigma-Aldrich, Italy), supplemented with 10% heat-inactivated FBS (Gibco, Italy), 1-glutamine 50 mg/mL (Sigma-Aldrich, Italy), penicillin 10 U/mL and streptomycin […] (Sigma-Aldrich, Italy) at 37° C., under a 5% CO2 humidified atmosphere. For experiments, the cells were plated 2×10^4 per ml in 24 well plates) or onto glass coverslips at concentrations of 4×10^4 per mL (24 mm diame-ter coverslips in 6 well plates).
BV-2 cells were loaded with 5 μM Fluo-4 AM in presence of 0.02% of Pluronic-127 (both from Life Technologies, Italy) and 10 μM sulfinpyrazone in Krebs-Ringer buffer (KRB, 135 mM NaCl, 5 mM KCl, 0.4 mM KH2PO4, 1 mM MgSO4, 5.5 mM glucose, 20 mM HEPES, pH 7.4) containing 2 mM CaCl2 (30 min, room temperature). Subsequently, cells were washed and incubated with KRB for other 30 min to allow de-esterification of Fluo-4 AM. Experiments were carried out prior to and during exposure of the cells to the Ca^2+-free solution. In the absence of Ca^2+, the intracellular Ca^2+ stores were depleted by 2,5-t-butylhydroquinone (tBHQ, 50 μM; Sigma-Aldrich, Italy), a SERCA poison, and then calcium 2 mM was re-added to the extracellular solution. Fluorescence is then monitored sequentially for a second in each well for 600 seconds with excitation at 494 nm and an emission wavelength at 516 nm on the V3 Victor plate-reader (Perkin Elmer), generating time-curves for each well. Data were analysed using Microsoft Excel and GraphPad Prism.
The percentage of SOCE inhibition for each compound was determined based on value of tBHQ-induced calcium influx into BV-2 cells (Table 2).

## CCOC(=O)c1cnn(-c2ccc(-n3cc(-c4cccc(C(=O)O)c4)nn3)cc2)c1C(F)(F)F [3-(1-(4-(4-(ethoxycarbonyl)-5-(trifluoromethyl)-1H-pyrazol-1-yl)phenyl)-1H-1,2,3-triazol-4-yl)benzoic acid]
[1]
  inhibition at 10 µM: 70.4%
[2]
  Effect on SOCE in wild-type and STIM1 mutated cells (FIG. 4A): impairs SOCE; also recorded: able to revert the over-activation
[3]
  Effect on SOCE in wild-type and Orai1 mutated cells (FIG. 4B): impairs SOCE; also recorded: able to revert the over-activation
[4]; Fluo-4, 50 μM tBHQ, 2 mM Ca2+ re-addition
  Regulation of SOCE (calcium response, representative traces FIG. 2A): negatively
[4]; Mus musculus, 10 μM, SOCE inhibition based on tBHQ-induced calcium influx
  inhibition at 10 µM: 45.3%
